Data published in article PMC8151276, “An Integrated Approach toward NanoBRET Tracers for Analysis of GPCR Ligand Engagement” (Molecules, 2021).

Assays:
Format in all cases: binding
ADORA2B = target: T1, ADORA2B (Homo sapiens, UniProt P29275); experiment: NanoBRET screen HiBiT-ADORA2B in HEK293
T1 construct: purchased Promega (in-house HiBiT-GPCR construct library, NanoBRET)
T1 sequence (P29275 1-332): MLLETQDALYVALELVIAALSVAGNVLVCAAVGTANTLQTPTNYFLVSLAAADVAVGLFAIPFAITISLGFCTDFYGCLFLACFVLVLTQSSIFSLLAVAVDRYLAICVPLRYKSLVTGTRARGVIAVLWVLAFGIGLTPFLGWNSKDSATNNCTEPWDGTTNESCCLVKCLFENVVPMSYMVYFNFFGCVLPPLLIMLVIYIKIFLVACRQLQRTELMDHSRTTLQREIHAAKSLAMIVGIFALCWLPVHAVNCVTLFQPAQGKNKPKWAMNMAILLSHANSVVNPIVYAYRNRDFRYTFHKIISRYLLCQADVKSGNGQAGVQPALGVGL
Method: (§1) Each tracer candidate was screened across the entire library of HiBiT-GPCR constructs using NanoBRET as the detection modality. As depicted in Figure 4A, the specificity of interactions was evaluated through decrease in BRET due to competitive displacement of a bound tracer by excess parental compound. Each tracer was analyzed for binding to each HiBiT-GPCR fusion in the absence and in the presence of competing parental compound. Briefly, HEK293 cells were transfected with HiBiT-GPCR constructs diluted into promoterless DNA to reduce expression and maximize translocation to the cell surface. Each tracer candidate was then screened at concentrations of 1 μM and 0.1 μM across cells expressing these fusions. Cells were treated for 1.5 h with tracer either alone or in the presence of 20 μM competing parental compound (i.e., control). BRET was measured upon addition of purified LgBiT and subsequent complementation with HiBiT genetically fused to a GPCR. The specificity of interactions was assessed through a decrease in BRET signal due to competitive displacement of the bound tracer. To further gauge the robustness of these interactions, the fold response over the control (i.e., BRETtracer/BRETcontrol) was calculated. We chose a 1.5-fold response, which translates to ≥7-fold signal over noise as the minimal threshold required to score an interaction as positive. […]. Below we highlight the screening results obtained for our exemplary fluorescent tracers based on Clozapine, Amitriptyline and AZD1283.
(§2) HiBiT-GPCR DNA constructs were diluted in 10 mM Tris pH 8 to a final concentration of 0.01 μg/μL, arrayed in 96-well plates and stored at −20 °C. For transfection, HEK293 cells were suspended in Opti-MEM (without phenol red) supplemented with 2% fetal bovine serum (Seradigm) and 100 units/mL penicillin–streptomycin (Gibco) at a final concentration of 220,000 cells/mL and dispensed into white 96-well plates at 90 μL/well. Subsequent transfections and screens were carried using an Agilent Bravo Automated Liquid Handling Platform. First, the 96-well HiBiT DNA arrays were diluted 25-fold in Opti-MEM (without serum or phenol red) to a final concentration of 0.0004 μg/μL and 20 μL of the diluted DNAs were transferred into new 96-well plates. Next, promoterless carrier DNA (1 μg/μL) was diluted 25-fold (0.04 μg/μL) and then dispensed into the diluted arrays at 20 μL/well. Following brief mixing, Viafect transfection reagent (Promega) diluted 16-fold into Opti-MEM was dispensed into the plates at 40 μL/well. After mixing by pipetting, plates were incubated for 10 min on the pipetting station deck. The DNA-transfection reagent complexes were then added to plates containing cells. To facilitate the screen, 10 μL of DNA-transfection reagent complexes were added in duplicates to the top 4 and bottom 4 rows, resulting in two identical 48-well arrays per plate. Plates with transfected cells were incubated for 18–20 h at 37 °C/5% CO2. A screen of each tracer across the entire library using two different concentrations requires duplicate plates of transfected cells. Depending on the number of tracers being screened, transfections can be scaled up using the same ratios. The next day, for each tracer, four 20× screening solutions in tracer dilution buffer (Promega) were prepared: two duplicates at final concentration of 20 μM and two duplicates at a final concentration of 2 μM. A competing unmodified compound was added to one of each duplicate at a final concentration of 400 μM. The four resulting solutions were diluted 4-fold in Opti-MEM without serum or phenol red to generate 5× solutions (5 µM and 0.5 µM tracer +/− 100 μM competing compound). To screen the library, a BioTek MultiFlo FX liquid dispenser was used to dispense 22.5 µL of tracer solution to the top 4 rows and 22.5 µL tracer + competing compound solution to the 4 bottom rows. Plates were briefly mixed on an orbital shaker and incubated for 1.5 h at room temperature. […]

HTR4 = target: T2, HTR4 (Homo sapiens, UniProt Q13639); experiment: NanoBRET screen HiBiT-HTR4 in HEK293
T2 construct: purchased Promega (in-house HiBiT-GPCR construct library, NanoBRET)
Method: as §1, §2

FSHR = target: T3, FSHR (Homo sapiens, UniProt P23945); experiment: NanoBRET screen HiBiT-FSHR in HEK293
T3 construct: purchased Promega (in-house HiBiT-GPCR construct library, NanoBRET)
T3 sequence (P23945 18-695): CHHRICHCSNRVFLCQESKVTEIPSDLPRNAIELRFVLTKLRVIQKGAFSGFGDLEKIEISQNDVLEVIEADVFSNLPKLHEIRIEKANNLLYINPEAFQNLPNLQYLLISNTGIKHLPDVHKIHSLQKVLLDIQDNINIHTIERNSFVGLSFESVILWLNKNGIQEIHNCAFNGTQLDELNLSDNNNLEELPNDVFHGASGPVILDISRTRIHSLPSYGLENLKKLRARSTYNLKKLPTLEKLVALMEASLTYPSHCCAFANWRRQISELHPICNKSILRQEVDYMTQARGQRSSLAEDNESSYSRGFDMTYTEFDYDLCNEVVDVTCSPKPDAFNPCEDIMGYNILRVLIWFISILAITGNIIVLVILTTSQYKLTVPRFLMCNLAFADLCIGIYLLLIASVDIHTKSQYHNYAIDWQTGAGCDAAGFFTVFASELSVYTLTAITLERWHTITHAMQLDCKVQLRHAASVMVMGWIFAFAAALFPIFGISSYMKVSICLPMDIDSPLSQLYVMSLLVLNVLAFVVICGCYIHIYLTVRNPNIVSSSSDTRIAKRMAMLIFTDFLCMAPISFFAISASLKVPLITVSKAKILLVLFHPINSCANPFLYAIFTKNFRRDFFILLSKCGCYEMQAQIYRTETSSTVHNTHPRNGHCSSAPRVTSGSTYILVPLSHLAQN
Method: as §1, §2

[1] = tracer at 0.1μM, listed as amitriptyline-b-2-NB590

T2 sequence (Q13639 whole entry): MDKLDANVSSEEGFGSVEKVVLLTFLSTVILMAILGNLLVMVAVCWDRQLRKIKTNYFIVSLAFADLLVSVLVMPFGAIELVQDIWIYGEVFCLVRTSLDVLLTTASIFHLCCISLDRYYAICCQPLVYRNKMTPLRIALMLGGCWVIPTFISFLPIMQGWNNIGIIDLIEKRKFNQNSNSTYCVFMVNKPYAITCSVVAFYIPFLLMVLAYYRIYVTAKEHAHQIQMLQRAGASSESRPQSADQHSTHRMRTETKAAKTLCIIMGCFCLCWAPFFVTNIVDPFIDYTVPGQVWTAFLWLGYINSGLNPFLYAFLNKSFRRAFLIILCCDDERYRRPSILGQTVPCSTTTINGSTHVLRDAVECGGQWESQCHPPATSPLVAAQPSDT

Compound | NanoBRET Fold Response (ADORA2B; ADORA2B, tracer 0.1μM) | NanoBRET Fold Response (ADORA2B; ADORA2B, tracer 1μM) | NanoBRET Fold Response (HTR4; HTR4, tracer 0.1μM) | NanoBRET Fold Response (HTR4; HTR4, tracer 1μM) | NanoBRET Fold Response (FSHR; FSHR, tracer 0.1μM) | NanoBRET Fold Response (FSHR; FSHR, tracer 1μM) | further results
O=C(CCOCCOCCOCCOCCNC(=O)CCc1ccc2n1[B-](F)(F)[N+]1=C(c3ccc[nH]3)C=CC1=C2)NCCCN1CCN(C2=Nc3ccccc3Oc3ccc(Cl)cc32)CC1 [Loxapine-a-2-NB590] | 1.41 | 0.62 | 1.02 | 1.04 | 0.98 | 1.16 | 
CC(C)N(CC[C@H](c1ccccc1)c1cc(CCNC(=O)c2ccc(CNC(=O)CCc3ccc4n3[B-](F)(F)[N+]3=C(c5ccc[nH]5)C=CC3=C4)cc2)ccc1O)C(C)C [Tolterodine-BZ-NB590] | 0.67 | 0.73 | 0.94 | 0.99 | 1.08 | 1.09 | 
O=C(CCc1ccc2n1[B-](F)(F)[N+]1=C(c3ccc[nH]3)C=CC1=C2)NCCOCCOCCNC(=O)OCCOCCN1CCN(C2=Nc3ccccc3Sc3ccccc32)CC1 [Quetiapine-a-2-NB590] | 0.80 | 1.02 | 0.98 | 1.00 | 0.89 | 1.07 | 
CN1CCN(C2=Nc3cc(Cl)ccc3Nc3ccc(CNC(=O)CCOCCOCCOCCOCCNC(=O)CCc4ccc5n4[B-](F)(F)[N+]4=C(c6ccc[nH]6)C=CC4=C5)cc32)CC1 [Clozapine-b-2-NB590] |  |  |  |  |  |  | NanoBRET Fold Response (ADORA2B; ADORA2B, 0.1μM tracer): 1.07; NanoBRET Fold Response (ADORA2B; ADORA2B, 1μM tracer): 0.99; NanoBRET Fold Response (HTR4; HTR4, 0.1μM tracer): 0.98; NanoBRET Fold Response (HTR4; HTR4, 1μM tracer): 0.99; NanoBRET Fold Response (FSHR; FSHR, 0.1μM tracer): 1.01; NanoBRET Fold Response (FSHR; FSHR, 1μM tracer): 1.05
CC(C)N(CC[C@H](c1ccccc1)c1cc(CCNC(=O)CCOCCOCCOCCOCCNC(=O)CCc2ccc3n2[B-](F)(F)[N+]2=C(c4ccc[nH]4)C=CC2=C3)ccc1O)C(C)C [Tolterodine-2-NB590] | 0.81 | 0.97 | 0.92 | 1.00 | 0.78 | 1.08 | 
Cc1cc2c(s1)Nc1ccccc1N=C2N1CCN(CCCNC(=O)CCOCCOCCOCCOCCNC(=O)CCc2ccc3n2[B-](F)(F)[N+]2=C(c4ccc[nH]4)C=CC2=C3)CC1 [Olanzapine-a-2-NB590] | 0.92 | 1.04 | 1.02 | 1.02 | 1.10 | 0.99 | 
N#CN=C(NCCCOc1cccc(CN2CCCCC2)c1)NCCNC(=O)CCOCCOCCOCCOCCNC(=O)CCc1ccc2n1[B-](F)(F)[N+]1=C(c3ccc[nH]3)C=CC1=C2 [Aminopotentidine-2-NB590] | 1.37 | 1.06 | 0.97 | 1.05 | 0.99 | 1.06 | 
Cc1nc2n(c(=O)c1CCN1CCC(c3noc4cc(F)ccc34)CC1)CCCC2OC(=O)NCCOCCOCCOCCOCCNC(=O)CCc1ccc2n1[B-](F)(F)[N+]1=C(c3ccc[nH]3)C=CC1=C2 (centres unmarked) [Risperidone-2-NB590] | 0.94 | 1.05 | 1.08 | 1.51 | 0.95 | 1.23 | 
CN(C)CCC=C1c2ccccc2CCc2ccc(C(=O)NCCNC(=O)CCOCCOCCOCCOCCNC(=O)CCc3ccc4n3[B-](F)(F)[N+]3=C(c5ccc[nH]5)C=CC3=C4)cc21 [Amitriptyline-b-2-NB590] |  |  |  |  |  |  | NanoBRET Fold Response (ADORA2B; [1]): 1.40; NanoBRET Fold Response (HTR4; tracer at 0.1μM): 1.03; NanoBRET Fold Response (HTR4; tracer at 1μM): 1.09; NanoBRET Fold Response (FSHR; [1]): 1.13; NanoBRET Fold Response (FSHR; tracer at 1μM, listed as amitriptyline-b-2-NB590): 0.96
